Measurements as given in patent publication EP1350523B1 (priority 1992, dated 1994).

System: vascular smooth muscle cells
Test: 24 hour 3H-thymidine DNA synthesis inhibition assay compared with 24 hour 3H-leucine protein inhibition assay
Format: cell-based
Conditions: for therapeutic range (area under the curve of 3H-leucine assay greater than that of 3H-thymidine assay): 24 hour exposure, 5% FBS; for protein synthesis inhibition and cytotoxicity at concentrations where significant DNA synthesis inhibition occurs: Example 8, Figs. 10A-10C
Experimental: The ability of various therapeutic agents to inhibit DNA synthesis and protein synthesis in vascular smooth muscle cells was tested. ^3H-leucine and ^3H-thymidine uptake and cytotoxicity assays were conducted in accordance with the following protocols.
3H-leucine uptake: Vascular smooth muscle cells at 40,000 cells/ml were seeded in sterile 24 well plates at 1ml/well. The plates were incubated overnight at 37°C, 5% CO2, 95% air in a humidified atmosphere (saturation). Log dilutions of the therapeutic agent of interest were incubated with the vascular smooth muscle cells for 5 minutes or 24 hours. Samples of the therapeutic agents were diluted in DMEM: F-12 media (Whittaker Bioproducts, Walkersville, Maryland) with 5% fetal bovine serum (GBS. Gibco) and 5% Serum Plus® (JRH Biologicals). Following therapeutic agent incubation, the solution was aspirated, and 1ml/well of 0.5 microcurie/ml ^3H-leucine in leucine free DMEM (Dulbecco's Modified Eagle's Medium) with 5% Serum Plus® was added. The plates were re-incubated overnight at 37°C, 5% CO2 in a humidified atmosphere. The cells were visually graded using an inverted microscope using a scoring scale to determine viability and cell number. The 1 to 3 grade is based upon percent of cell viability and number compared to control wells, with 3=100%, 2=70%-100% and 1=0%-70%. A record of this scoring assisted in determining the immediate cytotoxic effect of the therapeutic agents. The media was then aspirated, and the cells were washed twice with cold 5% TCA. 400 microliters of 0.2M NaOH was added per well, and the plates were incubated for two hours at room temperature on a rotating platform. 200 microliters per well of the cell solution was transferred into plastic scintillation vials (Bio-Rad Laboratories), and 4 milliliters of Bio-Safe® II liquid scintillation fluid was added prior to vortexing. Vials were counted on a Beckman LS2800 Liquid Scintillation Counter interfaced with Beckman "Data Capture" software for conversion to a Lotus 1-2-3® file and analysis using Lotus 1-2-3®.
^3H-thymidine uptake: Vascular smooth muscle cells were incubated in complete media with 5% FBS (Gibco) overnight at 37°C in a humidified, 5% CO2 environment in sterile 24 well plates. The media was aspirated from the wells and serum free media supplemented with growth factors (DMEM: F-12 basal media supplemented with growth factor cocktail catalog number I1884 which contains insulin (5 micrograms/ml), transferrin (5 micrograms/ml) and sodium selenite (5 nanograms/ml) available from Sigma Chemical, St. Louis, Missouri) was added. Cells were incubated in this media for 24 hours. For a 5 minute therapeutic agent exposure, log dilutions of the therapeutic agent were incubated with the cells in complete media. After 5 minutes and media aspiration, 1 ml/well of 1.0 microcurie/ml ^3H-thymidine dispersed in complete media was added. The 24 hour exposure involved incubation of the cells with 1 ml/well of 1.0 microcurie/ml of ^3H-thymidine dispersed in complete media and log dilutions of the therapeutic agent being tested. In both exposure trials, the cells were then incubated overnight at 37°C in a humidified, 5% CO2 environment. The cells were visually scored for viability and cell number. […] Vials were counted on a Beckman LS2800 Liquid Scintillation Counter interfaced with Beckman "Data Capture" software for conversion to a Lotus 1-2-3° file and analysis using Lotus 1-2-30®.

Row | SMILES | therapeutic range (area under the curve of 3H-leucine assay greater than that of 3H-thymidine assay) | protein synthesis inhibition and cytotoxicity at concentrations where significant DNA synthesis inhibition occurs
1 | Cc1ccc(C(=O)Nc2ccc(S(=O)(=O)O)c3cc(S(=O)(=O)O)cc(S(=O)(=O)O)c23)cc1NC(=O)c1cccc(NC(=O)Nc2cccc(C(=O)Nc3cc(C(=O)Nc4ccc(S(=O)(=O)O)c5cc(S(=O)(=O)O)cc(S(=O)(=O)O)c45)ccc3C)c2)c1 [suramin] | showed an available therapeutic range | minimal protein synthesis inhibition and cytotoxicity
2 | O=[N+]([O-])OCC(CO[N+](=O)[O-])O[N+](=O)[O-] [nitroglycerin] | showed an available therapeutic range | minimal protein synthesis inhibition and cytotoxicity
3 | CN[C@@H]1C[C@H]2O[C@@](C)([C@@H]1OC)n1c3ccccc3c3c4c(c5c6ccccc6n2c5c31)C(=O)NC4 [staurosporin] | showed an available therapeutic range | –
